# How the values were obtained:
# [1] = Light resistance of PMMA polymer film (remaining amount after metal halide lamp exposure); type: physicochemical; details: 50-μm PMMA film on glass, 0.2 mass % compound in coating solution, illuminance 90 mW/cm^2, 63° C., humidity 50%, 400 hours after exposure, transmittance at maximum absorption wavelength
# Procedure: A binder solution was prepared by dissolving 22 mass % of a PMMA resin (“[…] BR-80”, trade name; product of Mitsubishi Rayon) in methylene chloride. A coating solution was then prepared by dissolving 0.2 mass % of Exemplified compound (1) in the resulting binder solution. Using glass as a base material, the resulting coating solution was applied thereto with a 200 μm blade and dried at 100° C. for 10 minutes into a 50-μm thick coating to prepare a film. […] The absorbance of the film was measured with a spectrophotometer “UV-3600” (trade name; product of Shimadzu Corp). The film was exposed to light of a metal halide lamp (“Eye super UV tester”, trade name; product of Iwasaki Electric) under the conditions of illuminance of 90 mW/cm^2, temperature of 63° C., and humidity of 50%. The remaining amount of each compound 400 hours after exposure was measured. The remaining amount was computed in accordance with the following equation: Remaining amount(%)=100×(100-(transmittance after exposure))/(100-(transmittance before exposure)) The transmittance is a value measured at the maximum absorption wavelength of each compound.
# [2] = Measurement of pKa (perchloric acid titration, absorption spectrum); type: physicochemical; details: in acetonitrile, 70% perchloric acid (acetic acid as solvent) added dropwise; ratio of triazine-free compound and proton adduct from absorbance at λmax
# Procedure: Exemplified compound (1) was dissolved in acetonitrile to give its absorption coefficient of 1. […] At that time, a solution absorption spectrum was measured and a ratio of a triazine-free compound and a proton adduct at each pH was computed from the absorbance at λmax. The value of pKa was determined from a point at which the ratio became 1. […] The absorption spectrum was measured using a spectrophotometer “UV-3600” (trade name; product of Shimadzu Corp), while pH was measured using a pH meter “H[…]” (trade name; product of Toa Denpa Kogyo).
Remaining amount (%) [1],pKa [2],SMILES
21%,-4.4,CCCCCCCCOc1ccc(-c2nc(-c3ccc(C)cc3C)nc(-c3ccc(C)cc3C)n2)c(O)c1 [Comparative compound B]
63%,-4.9,CCCCCCOc1ccc(-c2nc(-c3ccccc3)nc(-c3ccccc3)n2)c(O)c1 [Comparative compound A]

# From patent US20100311877A1, “NOVEL TRIAZINE DERIVATIVE, ULTRAVIOLET ABSORBER, AND RESIN COMPOSITION” (FUJIFILM Corporation, priority 2009, published 2010)
